Key:
Format in all cases: in vivo
[1] = test system: Spodoptera littoralis; test: Example B9: Spodoptera littoralis (Egyptian cotton leaf worm), cotton leaf discs, L1 larvae; conditions: foliar, 72 h, application rate of 200 ppm, 3 days after infestation, read-out: control in at least one of the three categories (mortality, anti-feedant effect, or growth inhibition)
Experimental: Example B9: Spodoptera littoralis (Egyptian Cotton Leaf Worm)
Cotton leaf discs were placed onto agar in 24-well microtiter plates and sprayed with aqueous test solutions prepared from 10,000 ppm DMSO stock solutions. After drying the leaf discs were infested with five L1 larvae. The samples were assessed for mortality, anti-feeding effect, and growth inhibition in comparison to untreated samples 3 days after infestation. Control of Spodoptera littoralis by a test sample is given when at least one of the categories mortality, anti-feedant effect, and growth inhibition is higher than the untreated sample.

[2] = test system: Chilo suppressalis; test: Example B1: Chilo suppressalis (striped rice stemborer), artificial diet, L2 larvae; conditions: 144 h, application rate of 200 ppm, 6 days after infestation, read-out: control in at least one of the three categories (mortality, anti-feedant effect, or growth inhibition)
Experimental: Example B1: Chilo suppressalis (Striped Rice Stemborer)
24-well microtiter plates with artificial diet were treated with aqueous test solutions prepared from 10,000 ppm DMSO stock solutions by pipetting. After drying, the plates were infested with L2 larvae (6-8 per well). The samples were assessed for mortality, anti-feeding effect, and growth inhibition in comparison to untreated samples 6 days after infestation. Control of Chilo suppressalis by a test sample is given when at least one of the categories mortality, anti-feedant effect, and growth inhibition is higher than the untreated sample.

[3] = test system: Plutella xylostella; test: Example B8: Plutella xylostella (diamond back moth), artificial diet 24-well, eggs; conditions: 192 h, application rate of 200 ppm, 8 days after infestation, read-out: effect in at least one of the two categories (mortality or growth inhibition)
Experimental: Example B8: Plutella xylostella (Diamond Back Moth)
24-well microtiter plates with artificial diet were treated with aqueous test solutions prepared from 10,000 ppm DMSO stock solutions by pipetting. After drying, Plutella eggs were pipetted through a plastic stencil onto a gel blotting paper and the plate was closed with it. The samples were assessed for mortality and growth inhibition in comparison to untreated samples 8 days after infestation.
The following compounds gave an effect of at least 80% in at least one of the two categories (mortality or growth inhibition) at an application rate of 200 ppm: […]

**Q.** How did the percent control (mortality, anti-feedant effect or growth inhibition) at 200 ppm [1] turn out when `CC(NC(=S)Nc1cc(C(F)(F)F)cc(C(F)(F)F)c1)c1ncnn1-c1ncccn1` (stereo not shown) [Example P3, 1-[3,5-bis(trifluoromethyl)phenyl]-3-[1-(2-pyrimidin-2-yl-1,2,4-triazol-3-yl)ethyl]thiourea] was run?
**A.** ≥ 80%

**Q.** How did the percent control (mortality, anti-feedant effect or growth inhibition) at 200 ppm [2] turn out when `C[C@H](NC(=O)Nc1ccc(C(F)(F)F)c(Cl)c1)c1nccnc1-c1ccc(C#N)cn1` [Example P9, 1-[3-chloro-4-(trifluoromethyl)phenyl]-3-[(1S)-1-[3-(5-cyano-2-pyridyl)pyrazin-2-yl]ethyl]urea] was run?
**A.** ≥ 80%

**Q.** And the percent effect (mortality or growth inhibition) at 200 ppm [3]?
**A.** ≥ 80%

**Q.** Which percent control (mortality, anti-feedant effect or growth inhibition) at 200 ppm [2] does the source give for `C[C@H](NC(=O)Nc1ccc(C(F)(F)F)c(Cl)c1)c1nccnc1-c1ncccn1` [Example P10, 1-[3-chloro-4-(trifluoromethyl)phenyl]-3-[(1S)-1-(3-pyrimidin-2-ylpyrazin-2-yl)ethyl]urea] here?
**A.** ≥ 80%

**Q.** What about the percent effect (mortality or growth inhibition) at 200 ppm [3] of the same compound?
**A.** ≥ 80%

**Q.** `C[C@H](NC(=O)Nc1ncc(C(F)(F)F)cc1Cl)c1ncnn1-c1ncccn1` [Example P25, 1-[3-chloro-5-(trifluoromethyl)-2-pyridyl]-3-[(1S)-1-(2-pyrimidin-2-yl-1,2,4-triazol-3-yl)ethyl]urea] was tested. Which percent control (mortality, anti-feedant effect or growth inhibition) at 200 ppm [2] did it give?
**A.** ≥ 80%

**Q.** And the percent effect (mortality or growth inhibition) at 200 ppm [3]?
**A.** ≥ 80%

**Q.** What does the source list for `C[C@H](NC(=O)N1CCc2ccc(C(F)(F)F)cc21)c1ncnn1-c1ncccn1` [Example P50, N-[(1S)-1-(2-pyrimidin-2-yl-1,2,4-triazol-3-yl)ethyl]-6-(trifluoromethyl)indoline-1-carboxamide]?
**A.** percent control (mortality, anti-feedant effect or growth inhibition) at 200 ppm [2]: ≥ 80%; percent effect (mortality or growth inhibition) at 200 ppm [3]: ≥ 80%

**Q.** Which results are given for `C[C@H](NC(=O)Nc1ccc(Cl)cc1Oc1ccc(Cl)cc1)c1ncnn1-c1ncccn1` [Example P51, 1-[4-chloro-2-(4-chlorophenoxy)phenyl]-3-[(1S)-1-(2-pyrimidin-2-yl-1,2,4-triazol-3-yl)ethyl]urea]?
**A.** percent control (mortality, anti-feedant effect or growth inhibition) at 200 ppm [2]: ≥ 80%; percent effect (mortality or growth inhibition) at 200 ppm [3]: ≥ 80%

**Q.** Which percent control (mortality, anti-feedant effect or growth inhibition) at 200 ppm [1] does the source give for `C[C@H](NC(=O)Nc1ccc(Cl)c(Cl)c1Cl)c1ncnn1-c1ncccn1` [Example P95, 1-[(1S)-1-(2-pyrimidin-2-yl-1,2,4-triazol-3-yl)ethyl]-3-(2,3,4-trichlorophenyl)urea] here?
**A.** ≥ 80%

**Q.** With `C[C@H](NC(=O)N1CCc2cc(Br)ccc21)c1ncnn1-c1ncccn1` [Example P102, 5-bromo-N-[(1S)-1-(2-pyrimidin-2-yl-1,2,4-triazol-3-yl)ethyl]indoline-1-carboxamide] as the compound, how does the percent control (mortality, anti-feedant effect or growth inhibition) at 200 ppm [1] read?
**A.** ≥ 80%

**Q.** For `C[C@H](NC(=O)Nc1ccccc1OC(F)F)c1ncnn1-c1ncccn1` [Example P107, 1-[2-(difluoromethoxy)phenyl]-3-[(1S)-1-(2-pyrimidin-2-yl-1,2,4-triazol-3-yl)ethyl]urea], which percent control (mortality, anti-feedant effect or growth inhibition) at 200 ppm [2] is on record?
**A.** ≥ 80%

**Q.** What about the percent effect (mortality or growth inhibition) at 200 ppm [3] of the same compound?
**A.** ≥ 80%

**Q.** For `C[C@H](NC(=O)Nc1ccc(C(F)(F)F)c(Cl)c1)c1ncnn1-c1ncccn1` [Example P128, 1-[3-chloro-4-(trifluoromethyl)phenyl]-3-[(1S)-1-(2-pyrimidin-2-yl-1,2,4-triazol-3-yl)ethyl]urea], which percent control (mortality, anti-feedant effect or growth inhibition) at 200 ppm [2] is on record?
**A.** ≥ 80%

**Q.** And the percent effect (mortality or growth inhibition) at 200 ppm [3]?
**A.** ≥ 80%

**Q.** Which percent control (mortality, anti-feedant effect or growth inhibition) at 200 ppm [2] does the source give for `C[C@H](NC(=O)Nc1cc(C(F)(F)F)c(Cl)cc1Cl)c1ncnn1-c1ncc(C(=O)N(C)C)s1` [Example P170, 2-[5-[(1S)-1-[[2,4-dichloro-5-(trifluoromethyl)phenyl]carbamoyl-amino]ethyl]-1,2,4-triazol-1-yl]-N, N-dimethyl-thiazole-5-carboxamide] here?
**A.** ≥ 80%

**Q.** And the percent effect (mortality or growth inhibition) at 200 ppm [3]?
**A.** ≥ 80%

**Q.** Which percent control (mortality, anti-feedant effect or growth inhibition) at 200 ppm [1] does the source give for `C[C@H](NC(=O)Nc1cc(Cl)c(OC(F)(F)C(F)Br)cc1Cl)c1ncnn1-c1ncccn1` (stereo partly drawn) [Example P197, 1-[4-(2-bromo-1,1,2-trifluoro-ethoxy)-2,5-dichloro-phenyl]-3-[(1S)-1-(2-pyrimidin-2-yl-1,2,4-triazol-3-yl)ethyl]urea] here?
**A.** ≥ 80%

**Q.** What does the source list for `COc1cc(NC(=O)N[C@@H](C)c2ncnn2-c2ncccn2)c(Br)cc1Br` [Example P200, 1-(2,4-dibromo-5-methoxy-phenyl)-3-[(1S)-1-(2-pyrimidin-2-yl-1,2,4-triazol-3-yl)ethyl]urea]?
**A.** percent control (mortality, anti-feedant effect or growth inhibition) at 200 ppm [2]: ≥ 80%; percent effect (mortality or growth inhibition) at 200 ppm [3]: ≥ 80%

**Q.** What does the source list for `CC(C)OC(=O)c1cc(NC(=O)N[C@@H](C)c2ncnn2-c2ncccn2)c(F)cc1Cl` [Example P217, isopropyl 2-chloro-4-fluoro-5-[[(1S)-1-(2-pyrimidin-2-yl-1,2,4-triazol-3-yl)ethyl]carbamoylamino]benzoate]?
**A.** percent control (mortality, anti-feedant effect or growth inhibition) at 200 ppm [2]: ≥ 80%; percent effect (mortality or growth inhibition) at 200 ppm [3]: ≥ 80%

**Q.** How did the percent control (mortality, anti-feedant effect or growth inhibition) at 200 ppm [2] turn out when `COc1cc(NC(=O)N[C@@H](C)c2ncnn2-c2ncccn2)c(F)cc1Br` [Example P220, 1-(4-bromo-2-fluoro-5-methoxy-phenyl)-3-[(1S)-1-(2-pyrimidin-2-yl-1,2,4-triazol-3-yl)ethyl]urea] was run?
**A.** ≥ 80%

**Q.** What about the percent effect (mortality or growth inhibition) at 200 ppm [3] of the same compound?
**A.** ≥ 80%

**Q.** With `C[C@H](NC(=O)Nc1cc(OC(F)(F)C(F)F)c(Cl)cc1Cl)c1nccnc1-c1ccc(C#N)cn1` [Example P245, 1-[(1S)-1-[3-(5-cyano-2-pyridyl)pyrazin-2-yl]ethyl]-3-[2,4-dichloro-5-(1,1,2,2-tetrafluoroethoxy)phenyl]urea] as the compound, how does the percent control (mortality, anti-feedant effect or growth inhibition) at 200 ppm [2] read?
**A.** ≥ 80%

**Q.** What about the percent effect (mortality or growth inhibition) at 200 ppm [3] of the same compound?
**A.** ≥ 80%

**Q.** With `CC(NC(=O)Nc1ccc(Cl)c(C(F)(F)F)c1)c1nccnc1-n1nccn1` (stereo not shown) [Example P259, 1-[4-chloro-3-(trifluoromethyl)phenyl]-3-[1-[3-(triazol-2-yl)pyrazin-2-yl]ethyl]urea] as the compound, how does the percent effect (mortality or growth inhibition) at 200 ppm [3] read?
**A.** ≥ 80%

**Q.** How did the percent control (mortality, anti-feedant effect or growth inhibition) at 200 ppm [2] turn out when `CC(NC(=O)Nc1cc(C(F)(F)F)c(Cl)cc1Br)c1nccnc1-n1nccn1` (stereo not shown) [Example P260, 1-[2-bromo-4-chloro-5-(trifluoromethyl)phenyl]-3-[1-[3-(triazol-2-yl)pyrazin-2-yl]ethyl]urea] was run?
**A.** ≥ 80%

**Q.** And the percent effect (mortality or growth inhibition) at 200 ppm [3]?
**A.** ≥ 80%

**Q.** Which percent control (mortality, anti-feedant effect or growth inhibition) at 200 ppm [2] does the source give for `C[C@@H](c1ncnn1-c1ncccn1)N(C)C(=O)N(C)c1cnc(C(F)(F)F)cc1Cl` [Example P270, 1-[4-chloro-6-(trifluoromethyl)-3-pyridyl]-1,3-dimethyl-3-[(1S)-1-(2-pyrimidin-2-yl-1,2,4-triazol-3-yl)ethyl]urea] here?
**A.** ≥ 80%

**Q.** And the percent effect (mortality or growth inhibition) at 200 ppm [3]?
**A.** ≥ 80%

**Q.** With `C[C@H](NC(=O)Nc1c(Cl)cc(Cl)c(OC(F)(F)C(F)F)c1I)c1nccnc1-c1ccc(C#N)cn1` [Example P275, 1-[(1S)-1-[3-(5-cyano-2-pyridyl)pyrazin-2-yl]ethyl]-3-[4,6-dichloro-2-iodo-3-(1,1,2,2-tetrafluoroethoxy)phenyl]urea] as the compound, how does the percent control (mortality, anti-feedant effect or growth inhibition) at 200 ppm [2] read?
**A.** ≥ 80%

**Q.** And the percent effect (mortality or growth inhibition) at 200 ppm [3]?
**A.** ≥ 80%

**Q.** With `COc1cc(NC(=O)N[C@@H](C)c2ncnn2-c2ncccn2)c(I)cc1Cl` [Example P288, 1-(4-chloro-2-iodo-5-methoxy-phenyl)-3-[(1S)-1-(2-pyrimidin-2-yl-1,2,4-triazol-3-yl)ethyl]urea] as the compound, how does the percent effect (mortality or growth inhibition) at 200 ppm [3] read?
**A.** ≥ 80%

**Q.** With `Cc1cc(NC(=O)N[C@@H](C)c2ncnn2-c2ncccn2)c(Cl)cc1Br` [Example P290, 1-(4-bromo-2-chloro-5-methyl-phenyl)-3-[(1S)-1-(2-pyrimidin-2-yl-1,2,4-triazol-3-yl)ethyl]urea] as the compound, how does the percent effect (mortality or growth inhibition) at 200 ppm [3] read?
**A.** ≥ 80%

**Q.** How did the percent control (mortality, anti-feedant effect or growth inhibition) at 200 ppm [2] turn out when `Cc1cc(Br)c(Cl)cc1NC(=O)N[C@@H](C)c1ncnn1-c1ncccn1` [Example P299, 1-(4-bromo-5-chloro-2-methyl-phenyl)-3-[(1S)-1-(2-pyrimidin-2-yl-1,2,4-triazol-3-yl)ethyl]urea] was run?
**A.** ≥ 80%

**Q.** What about the percent effect (mortality or growth inhibition) at 200 ppm [3] of the same compound?
**A.** ≥ 80%

**Q.** With `Cc1cc(Cl)c(Br)cc1NC(=O)N[C@@H](C)c1ncnn1-c1ncccn1` [Example P305, 1-(5-bromo-4-chloro-2-methyl-phenyl)-3-[(1S)-1-(2-pyrimidin-2-yl-1,2,4-triazol-3-yl)ethyl]urea] as the compound, how does the percent effect (mortality or growth inhibition) at 200 ppm [3] read?
**A.** ≥ 80%

**Q.** Which percent effect (mortality or growth inhibition) at 200 ppm [3] does the source give for `COc1cc(Br)c(Cl)cc1NC(=O)N[C@@H](C)c1ncnn1-c1ncccn1` [Example P368, 1-(4-bromo-5-chloro-2-methoxy-phenyl)-3-[(1S)-1-(2-pyrimidin-2-yl-1,2,4-triazol-3-yl)ethyl]urea] here?
**A.** ≥ 80%

**Q.** Which results are given for `C[C@H](NC(=O)Nc1cc(F)c(Cl)cc1I)c1ncnn1-c1ncccn1` [Example P376, 1-(4-chloro-5-fluoro-2-iodo-phenyl)-3-[(1S)-1-(2-pyrimidin-2-yl-1,2,4-triazol-3-yl)ethyl]urea]?
**A.** percent control (mortality, anti-feedant effect or growth inhibition) at 200 ppm [2]: ≥ 80%; percent effect (mortality or growth inhibition) at 200 ppm [3]: ≥ 80%

From patent publication US20240108006A1, “PESTICIDALLY ACTIVE HETEROAROMATIC COMPOUNDS” (SYNGENTA CROP PROTECTION AG, priority 2021, published 2024)
